Laboratory results taken from US20090306132A1, “USE OF DERIVATIVES OF NAPHTHALENESULPHONIC OR QUINOLINESULPHONIC ACID IN THE TREATMENT OF VASOPROLIFERATIVE OCULAR DISEASES” (ITALFARMACO, S.A., priority 2006, published 2009).

System: hypoxia-induced hypervascularization of the retina
Test: Inhibition of hypoxia-induced vascularization in a mouse model of retinopathy of prematurity (retinopathy score)
Assay type: in vivo, C57BL/6J mice
Description: A total of thirty C57BL/6J mice were used in a model of retinopathy of prematurity. Seven days after birth, the mice (young) were transferred together with their mothers to a high-oxygen atmosphere (75%) obtained using a mixture of oxygen and air. After 5 days, the animals were transferred to a normal atmosphere. The relative hypoxia produced leads to the release of growth factors which, in turn, cause hypervascularization of the retina. 14-18 hours thereafter, an intravitreous injection of 2 μl of a sterile saline solution of sodium 5-amino-2-naphthalene sulfonate (25 mg/ml) into an eye was performed, and another injection of an equivalent volume of saline solution was performed in the contralateral eye.
Five days after the return to normal atmosphere, the mice were put down by means of an intracardiac injection of dextrane marked with fluorescein (50 mg/ml), the nuclei were removed from both eyes and were fixed for 2 to 6 hours in formaldehyde (4%) at room temperature.
Subsequently, the retina was cut and mounted for observation by fluorescent microscopy, with the vasculature of the retina being assessed. Given that the retina occupies a circular area, in order to perform the assessment, 12 equal radial segments are considered. For the assessment of the central vascularization, the retina is divided into three concentric circles defining three zones: the interior zone around the optic disc, the middle and the exterior zone.
The retinopathy is quantified using a system of multiple assessment in which various morphological parameters associated with retinopathy are assessed: • Presence of a “crest” in each radial segment. One point for each radial segment with the presence of crests. Scoring from 0 to 12. • Presumed extraretinal vascularization, indicated by the presence of groupings of “crest-like” structures. One point for each radial segment with groupings. Scoring from 0 to 12. • Size of the central avascular zone. Scoring from 0 to 3, with 0 meaning an occupation of less than 50% of the interior zone; 1 an occupation of less than 25% of the sum of the interior and middle zone; 2 an occupation of between 25-50% of said sum and 3 an occupation of greater than 50% of same. • Tortuosity of the vessels, measured as a percentage of tortuous vessels with respect to the total. The scoring ranges from 0 to 3, with 0 meaning no tortuosity, 1 if less than ⅓ of the total are tortuous, 2 if between ⅓ and ⅔ are tortuous, and 3 if more than ⅔ are tortuous.
For each eye, a global assessment was obtained consisting of the sum of the points obtained for each parameter.
The statistical analysis of the data was performed subsequently using a Wilcoxon's test.

[1] = intravitreous injection of 2 μl of 25 mg/ml in saline, five days after return to normal atmosphere, N 30

Nc1cccc2cc(S(=O)(=O)[O-])ccc12.[Na+] [ACTIVE, sodium 5-amino-2-naphthalene sulfonate]
Effect seen in histological sections of treated eye versus contralateral placebo eye (in words) (histological sections, FIG. 2): antiangiogenic effect
Global retinopathy assessment (sum of the points obtained for each parameter), Median (intravitreous injection of 2 μl of 25 mg/ml in saline into one eye, saline in contralateral eye, assessed five days after return to normal atmosphere, N 30, p=0.017 vs placebo (Wilcoxon)): 10.5
Global retinopathy assessment (sum of the points obtained for each parameter), Maximum [1]: 16
Global retinopathy assessment (sum of the points obtained for each parameter), Minimum [1]: 3
Effect on neovascularization induced by hypoxia of the retina (in words) (score compared to placebo, FIG. 1): inhibitory effect
